Assay results: paper PMC8294567, “Associations between plasma nucleoside reverse transcriptase inhibitors concentrations and cognitive function in people with HIV” (PLoS ONE, 2021)
Where a name gives a salt, the structure may show the parent alone.

Legend:
[1] = Plasma NRTI concentrations and population PK parameters (POPPY study)
Description: (§1) NRTI concentrations were measured by a validated method on ultra-performance liquid chromatography (ACQUITY, Waters) in plasma samples collected at study baseline. Briefly, 200 μL of plasma was subjected to solid phase extraction (MCX cartridge, Waters) and the elutants were dried under nitrogen stream before being re-constituted in 50 μL of water. The NRTI drugs were separated using a C18 BEH column (1.7 μm, 2.1 mm x 100 mm, Waters). For each of the four NRTIs, population PK models were determined using nonlinear mixed effects (NONMEM v.7.3) using the $PRIOR subroutine to stabilise the models and aid partition of inter-individual and residual variabilities. The impact of covariates on antiretroviral apparent oral clearance was evaluated. […] Model fit was assessed by statistical and graphical methods.

[2] = human, in vivo
Description: as §1, with “methods. A decrease in the minimal objective function value (-2*log likelihood) of at least 3.84 units (corresponding to a p-value<0.05) was required to accept a model with an extra parameter. Once significant covariates were incorporated, a backwards elimination process was performed and biologically plausible covariates generating an increase in the objective function value of at least 10.83 (i.e. p<0.001) units were retained.” for “methods.”
Continuous variables, including PK parameters and cognitive z-scores, were summarized using the median and the interquartile range (IQR); categorical variables were described using frequencies and percentages. Associations between NRTI PK parameters and cognitive z-scores were assessed using a series of rank regression models, one for each combination of cognitive domain/global score, NRTI and PK parameter (7x4x3 models). In each model, the cognitive score was considered as the dependent variable and the NRTI PK parameter as an independent variable in addition to the following confounders, selected a priori: age, gender, ethnicity, education, recreational drug use, alcohol consumption, glomerular filtration rate (estimated using the Chronic Kidney Disease Epidemiology Collaboration equation [15]), depressive symptoms (assessed via the Patient Health Questionnaire-9 [16]) use of ritonavir/cobicistat boosted protease inhibitor and use of efavirenz. […] Multivariable analyses were conducted as follows, in order to investigate associations of each PK parameter for one NRTI, independently of the concentration of the other NRTI in the regimen. […] All analyses were performed using the statistical software SAS v9.4 with p-values <0.05 considered as statistically significant.

[3] = tested on: cognitive function; settings: cited from earlier work
[4] = set-up: method as in PMID 16390539; settings: cited from earlier work
[5] = PWH on cART, median (IQR), from population PK model

| SMILES | Ctrough [1, 5] | AUC(0-t) ([1]; human, po) [ng·h/mL] | Cmax ([1]; human, po) [ng/mL] | Eta^2, Age vs Ctrough [2] | Eta^2, Alcohol consumption vs Ctrough [2] | Eta^2, BMI vs Ctrough [2] | Eta^2, Education vs Ctrough [2] | Eta^2, Ethnicity vs Ctrough [2] | Eta^2, Gender vs Ctrough [2] | Eta^2, PHQ-9 score vs Ctrough [2] | Eta^2, Recreational drug use vs Ctrough [2] | Eta^2, Use of Efavirenz vs Ctrough [2] | Eta^2, Use of boosted PI vs Ctrough [2] | Eta^2, eGFR vs Ctrough [2] | Eta^2, Age vs AUC0-24 [2] | Eta^2, Age vs Cmax [2] | Eta^2, Alcohol consumption vs AUC0-24 [2] | Eta^2, Alcohol consumption vs Cmax [2] | Eta^2, BMI vs AUC0-24 [2] | Eta^2, BMI vs Cmax [2] | further results |
| --- | --- | --- | --- | --- | --- | --- | --- | --- | --- | --- | --- | --- | --- | --- | --- | --- | --- | --- | --- | --- | --- |
| Nc1ccn([C@@H]2CS[C@H](CO)O2)c(=O)n1 [3TC, lamivudine] | 3TC: 12.4 (3.0, 126.7) μg/l | 9900 | 2400 | 0.101 | 0.005 | 0.002 | 0.084 | 0.021 | 0.002 | 0.015 | 0.014 | 0.041 | 0.039 | 0.230 | – | – | – | – | – | – | – |
| Nc1nc(NC2CC2)c2ncn([C@H]3C=C[C@@H](CO)C3)c2n1 [ABC, abacavir] | ABC: 2.6 (1.4, 4.6) μg/l | 12700 | 4200 | 0.069 | 0.008 | 0.000 | 0.114 | 0.002 | 0.001 | 0.000 | 0.010 | 0.040 | 0.059 | 0.089 | 0.005 | 0.017 | 0.002 | 0.000 | 0.010 | 0.014 | Eta^2, Education vs AUC0-24 [2]: 0.071; Eta^2, Education vs Cmax [2]: 0.033; Eta^2, Ethnicity vs AUC0-24 [2]: 0.011; Eta^2, Ethnicity vs Cmax [2]: 0.025; Eta^2, Gender vs AUC0-24 [2]: 0.036; Eta^2, Gender vs Cmax [2]: 0.034; Eta^2, PHQ-9 score vs AUC0-24 [2]: 0.000; Eta^2, PHQ-9 score vs Cmax [2]: 0.001; Eta^2, Recreational drug use vs AUC0-24 [2]: 0.027; Eta^2, Recreational drug use vs Cmax [2]: 0.009; Eta^2, Use of Efavirenz vs AUC0-24 [2]: 0.016; Eta^2, Use of Efavirenz vs Cmax [2]: 0.000; Eta^2, Use of boosted PI vs AUC0-24 [2]: 0.053; Eta^2, Use of boosted PI vs Cmax [2]: 0.008; Eta^2, eGFR vs AUC0-24 [2]: 0.039; Eta^2, eGFR vs Cmax [2]: 0.000; effect on cognitive performance ([3]; cohort study): beneficial effect; cognitive function after ABC initiation ([3]; randomized controlled trial, PWH with HIV-associated dementia): no improvement of cognitive function |
| Nc1nc(=O)n([C@@H]2CS[C@H](CO)O2)cc1F [FTC, emtricitabine] | FTC: 75.0 (59.0, 99.0) μg/l | 10400 | 1100 | 0.099 | 0.001 | 0.000 | 0.013 | 0.005 | 0.000 | 0.004 | 0.025 | 0.005 | 0.005 | 0.083 | 0.157 | 0.189 | 0.000 | 0.000 | 0.000 | 0.000 | Eta^2, Education vs AUC0-24 [2]: 0.013; Eta^2, Education vs Cmax [2]: 0.011; Eta^2, Ethnicity vs AUC0-24 [2]: 0.010; Eta^2, Ethnicity vs Cmax [2]: 0.014; Eta^2, Gender vs AUC0-24 [2]: 0.000; Eta^2, Gender vs Cmax [2]: 0.000; Eta^2, PHQ-9 score vs AUC0-24 [2]: 0.004; Eta^2, PHQ-9 score vs Cmax [2]: 0.002; Eta^2, Recreational drug use vs AUC0-24 [2]: 0.030; Eta^2, Recreational drug use vs Cmax [2]: 0.033; Eta^2, Use of Efavirenz vs AUC0-24 [2]: 0.008; Eta^2, Use of Efavirenz vs Cmax [2]: 0.008; Eta^2, Use of boosted PI vs AUC0-24 [2]: 0.008; Eta^2, Use of boosted PI vs Cmax [2]: 0.008; Eta^2, eGFR vs Cmax [2]: 0.172 |
| CC(C)OC(=O)[C@H](C)N[P@](=O)(CO[C@H](C)Cn1cnc2c(N)ncnc21)Oc1ccccc1 [TAF, tenofovir alafenamide] | – | – | – | – | – | – | – | – | – | – | – | – | – | – | – | – | – | – | – | – | cognitive performances on switching from TDF to TAF ([3]; PWH switching from TDF to TAF): no changes in cognitive performances |
| CC(C)OC(=O)OCOP(=O)(CO[C@H](C)Cn1cnc2c(N)ncnc21)OCOC(=O)OC(C)C [TDF, tenofovir disoproxil fumarate] | – | – | – | 0.075 | 0.001 | 0.013 | 0.011 | 0.011 | 0.001 | 0.002 | 0.012 | 0.005 | 0.004 | 0.135 | 0.070 | 0.028 | 0.002 | 0.005 | 0.095 | 0.271 | Eta^2, Education vs AUC0-24 [2]: 0.016; Eta^2, Education vs Cmax [2]: 0.020; Eta^2, Ethnicity vs AUC0-24 [2]: 0.007; Eta^2, Ethnicity vs Cmax [2]: 0.000; Eta^2, Gender vs AUC0-24 [2]: 0.009; Eta^2, Gender vs Cmax [2]: 0.033; Eta^2, PHQ-9 score vs AUC0-24 [2]: 0.001; Eta^2, PHQ-9 score vs Cmax [2]: 0.001; Eta^2, Recreational drug use vs AUC0-24 [2]: 0.007; Eta^2, Recreational drug use vs Cmax [2]: 0.000; Eta^2, Use of Efavirenz vs AUC0-24 [2]: 0.003; Eta^2, Use of Efavirenz vs Cmax [2]: 0.000; Eta^2, Use of boosted PI vs AUC0-24 [2]: 0.004; Eta^2, Use of boosted PI vs Cmax [2]: 0.002; Eta^2, eGFR vs AUC0-24 [2]: 0.124; Eta^2, eGFR vs Cmax [2]: 0.042; CNS penetration [4]: low CNS penetration |
| C[C@H](Cn1cnc2c(N)ncnc21)OCP(=O)(O)O [TFV, tenofovir] | TFV: 53.0 (44.0, 67.0) μg/l | 2700 | – | – | – | – | – | – | – | – | – | – | – | – | – | – | – | – | – | – | Cmax [1, 5]: TFV: 0.3 (0.2, 0.3) mg/l |
